Data set [1] has as its system MCF-7 (Y537S) human breast cancer cells xenograft tumors. The experiment in a line: Efficacy against MCF-7 (Y537S) xenograft tumors in BEIGE SCID mice. In kind it is in vivo. The following applies: for Mean tumor volume D0: D0 (day of grouping, before dosing). The procedure:
To evaluate the inhibitory effect of compound I on the growth of xenograft tumors of MCF-7 (Y537S) human breast cancer cells in BEIGE SCID mice.
Compound I. A 2% Tween 80+98% PEG-400 solution was used.
Test animals: female BEIGE SCID mice, purchased from Beijing Vital River Laboratory Animal Technology Co., Ltd. (certificate No. SCXK (Beijing) 2016-0006), weighing about 19 g on purchase.
Housing conditions: 5 animals/cage, a 12/12-hour light/dark cycle, a constant temperature of 23±1° C. with humidity at 50 to 60%, ad libitum access to food and water.
After acclimatization, BEIGE SCID mice were grouped as follows:
MCF-7 (Y537S) cells in the logarithmic growth phase were subcutaneously inoculated into the right flank of female BEIGE SCID mice at 1.0×10^7/mouse/200 μL (containing 100 μL of matrigel). After 18 days, when the tumor volume of tumor-bearing mice reached about 170 mm^3, the mice were randomly divided into 4 groups of 8 according to tumor volume and body weight: a vehicle control group, a compound I 5 mpk group, a compound I 15 mpk group, and a compound I 45 mpk group. The day of grouping was set as Do, and intragastric administration was started and performed once a day for 28 days. The 28th day post-dose was set as D28 (Table 1). The tumor volume of tumor-bearing mice was measured with a vernier caliper twice a week.
All data were plotted and statistically analyzed using Excel and GraphPad Prism 8 software.
The calculation formula for tumor volume (V) was: V=½×a×b2, where a and b represent length and width, respectively.
Relative tumor proliferation rate T/C (%)=(T−T0)/(C−C0)×100(%), where T and C represent the tumor volumes of the treatment groups and the control group at the end of the experiment; T0 and C0 represent the tumor volumes at the beginning of the experiment.
Tumor growth inhibition rate TGI (%)=1−T/C (%). If TGI (%) exceeds 100%, its specific value will not be shown; instead, it will be represented as >100%. Tumor regression (%)=[(T0−T)/T0]×100(%).

The subject of data set [2] is MCF7 cells. The experiment in a line: Inhibitory effect on MCF7 cell proliferation (CellTiter-Glo). Type of data set: cell-based. The following applies: Homo sapiens, 144 h, 6 days incubation, luminescence cell viability readout. On the procedure:
MCF7 cells (TCHu74, National Collection of Authenticated Cell Cultures) were cultured in an MEM (GE Healthcare, SH30024.01) complete culture medium containing 10% fetal bovine serum. On day 1 of the experiment, MCF7 cells were seeded into a 96-well plate at a density of 3,000 cells/well using an MEM culture medium containing 2% fetal bovine serum, with each well containing 135 μL of cell suspension. The plate was incubated overnight in a 37° C., 5% CO2 cell incubator. The next day, the test compound, at different concentrations in the culture medium, was added at 15 μL/well. The final concentrations of the compound were 9 concentration points obtained by 4-fold serial dilution from 1000 nM. A blank control containing 0.5% DMSO was set up. The plate was incubated in a 37° C., 5% CO2 cell incubator for 6 days. On day 8, the 96-well cell culture plate was taken out, and CellTiter-Glo® Luminescent Cell Viability Assay (Promega, G7573) was added at 75 µL/well. After the plate was left at room temperature for 10 min, luminescence signal values were measured using a multilabel microplate reader (PerkinElmer, VICTOR 3).

Data set [3] is described as follows: Influencing factor stability (light, high temperature, high humidity). In kind it is physicochemical. On the procedure: Samples of hydrochloride crystal form I were spread out in open vessels and subjected to 1-month stability tests under light exposure (4500 Lux), high temperature (40° C. and 60° C.), and high humidity (RH 75% and RH 92.5%) conditions.
Data set [4] can be described thus: DVS (dynamic vapor sorption) hygroscopicity test. Type of data set: physicochemical. The procedure:
DVS refers to dynamic vapor sorption: Surface Measurement Systems instrinsic was adopted; the humidity started at 50%, the humidity range of the investigation was 0%-95%, and the humidity was increased in increments of 10%; the criterion was that each gradient mass change dM/dT is ≤0.002%, TMAX 360 min, two cycles.

A short description of data set [5]: Long-term/accelerated stability. Type of data set: physicochemical. On the procedure: Hydrochloride crystal form I was left to stand under 25° C./60% RH and 40° C./75% RH conditions to test its stability.

This is an account of results in patent publication US20260098027A1, “PHARMACEUTICALLY ACCEPTABLE SALT AND CRYSTAL FORM OF TETRAHYDRONAPHTHALENE DERIVATIVE, AND PREPARATION METHOD” (JIANGSU HENGRUI PHARMACEUTICALS CO., LTD., priority 2022, published 2026).

Counter-ions that a name gives are not always drawn.

`CC(C)C[C@H]1CCc2cc(O)ccc2[C@H]1c1ccc(N2CCC(CN3CCN(c4ccc5c(c4)CN([C@H]4CCC(=O)NC4=O)C5=O)CC3)CC2)cc1` [Compound I, (S)-3-(5-(4-((1-(4-((1R,2R)-6-hydroxy-2-isobutyl-1,2,3,4-tetrahydronaphthalen-1-yl)phenyl)piperidin-4-yl)methyl)piperazin-1-yl)-1-oxoisoindolin-2-yl)piperidine-2,6-dione]: in data set [1] (5 mpk i.g. qd/28 d), the “Number of remaining animals/group” value is listed as 8/8, the “Mean tumor volume D0” value was 170.2 mm^3, the “Mean tumor volume D28” value amounted to 305.0 mm^3 and the “TGI (%) D28” value is reported as 72%. Further, in data set [1] (15 mpk i.g. qd/28 d), the “Number of remaining animals/group” value is recorded as 8/8, the “Mean tumor volume D0” value is 168.2 mm^3, the “Mean tumor volume D28” value was found to be 219.7 mm^3 and the “TGI (%) D28” value worked out at 89%. Also, in data set [1] (45 mpk i.g. qd/28 d), the “Number of remaining animals/group” value is 8/8, the “Mean tumor volume D0” value is 168.6 mm^3, the “Mean tumor volume D28” value is recorded as 192.0 mm^3 and the “TGI (%) D28” value is listed as 95%. The molecule also came in with an IC50 in data set [2] of 0.59 nM.

As for `CC(C)C[C@H]1CCc2cc(O)ccc2[C@H]1c1ccc(N2CCC(CN3CCN(c4ccc5c(c4)CN([C@H]4CCC(=O)NC4=O)C5=O)CC3)CC2)cc1` [hydrochloride crystal form I, (S)-3-(5-(4-((1-(4-((1R,2R)-6-hydroxy-2-isobutyl-1,2,3,4-tetrahydronaphthalen-1-yl)phenyl)piperidin-4-yl)methyl)piperazin-1-yl)-1-oxoisoindolin-2-yl)piperidine-2,6-dione], the Purity % in data set [3] (40° C., 7 days, open vessel) came to 98.6%; in data set [3] (40° C., 14 days, open vessel), 98.4%; in data set [3] (40° C., 30 days, open vessel), 97.9%; in data set [3] (60° C., 7 days, open vessel) it was 98.2%; in data set [3] (60° C., 14 days, open vessel), 97.6%; in data set [3] (60° C., 30 days, open vessel), 96.8%. The Purity % amounted to 99.0% in data set [3] (75% RH, 7 days, open vessel); 98.9% in data set [3] (75% RH, 14 days, open vessel); 99.0% in data set [3] (75% RH, 30 days, open vessel); 99.0% in data set [3] (93% RH, 7 days, open vessel); 98.9% in data set [3] (93% RH, 14 days, open vessel); 98.7% in data set [3] (93% RH, 30 days, open vessel). For the same molecule, the Purity % in data set [3] (4500 Lux, 7 days, open vessel) amounted to 98.6%; in data set [3] (4500 Lux, 14 days, open vessel), 98.1%; in data set [3] (4500 Lux, 30 days, open vessel), 97.8%; in data set [3] (Initial, 0 days), 99.0%; in data set [5] (25° C./60% RH, 7 days), 99.0%; in data set [5] (25° C./60% RH, 14 days) it was 99.0%. Further, the Purity % is reported as 99.0% in data set [5] (25° C./60% RH, 30 days); 99.0% in data set [5] (25° C./60% RH, 60 days); 99.0% in data set [5] (40° C./75% RH, 7 days); 99.0% in data set [5] (40° C./75% RH, 14 days); 99.0% in data set [5] (40° C./75% RH, 30 days); 98.9% in data set [5] (40° C./75% RH, 60 days). Moreover, in data set [5] (Initial, 0 days), the Purity % was determined as 99.0%. Further, the “physical and chemical stabilities (conclusion)” value in data set [3] (standing 1 month under conditions other than the high temperature and light exposure conditions) was “good physical and chemical stabilities”; in data set [5] (standing under long-term accelerated conditions for 2 months), “good physical and chemical stabilities”. For the same molecule, the hygroscopic weight gain result in data set [4] (accelerated experimental conditions, 70% RH) was “about 7.3%”; in data set [4] (extreme conditions, 90% RH), “about 8.9%”; in data set [4] (normal storage conditions, 25° C. and 60% RH), “about 6.3%”. Moreover, the “crystal form after the DVS tests” value in data set [4] (sample re-identified after DVS) was “its crystal form did not change”.
